How the values were obtained:
Test in all cases: cell viability (% survival relative to DMSO control, bortezomib = 0%); higher = less cytotoxic
Conditions in all cases: 72 h
KCL-22 = test system: KCL-22
Outline: (§1)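 Reported values are percent survival from duplicate wells, averaged. Fifteen myeloid leukaemia cell lines were treated in 384-well plates with compounds at 1, 10, 100, 1000 or 10000 nM for 72 h at 37 °C in 5% CO2. Signals from CellTiter-Glo luminescence were scaled with vehicle as 100% and a 10 µM positive control as 0%.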

KU-812 = test system: KU-812
Outline: as §1

ML-2 = test system: ML-2
Outline: as §1

MV4-11 = test system: MV4-11
Outline: as §1

SMILES	cell viability (KCL-22; 1 nM) [%]	cell viability (KCL-22; 10 nM) [%]	cell viability (KCL-22; 100 nM) [%]	cell viability (KCL-22; 1000 nM) [%]	cell viability (KCL-22; 10000 nM) [%]	cell viability (KU-812; 1 nM) [%]	cell viability (KU-812; 10 nM) [%]	cell viability (KU-812; 100 nM) [%]	cell viability (KU-812; 1000 nM) [%]	cell viability (KU-812; 10000 nM) [%]	cell viability (ML-2; 1 nM) [%]	cell viability (ML-2; 10 nM) [%]	cell viability (ML-2; 100 nM) [%]	cell viability (ML-2; 1000 nM) [%]	cell viability (ML-2; 10000 nM) [%]	cell viability (MV4-11; 1 nM) [%]	cell viability (MV4-11; 10 nM) [%]	cell viability (MV4-11; 100 nM) [%]	cell viability (MV4-11; 1000 nM) [%]	cell viability (MV4-11; 10000 nM) [%]
O=C(c1ccc(OCCN2CCCCC2)cc1)c1c(-c2ccc(O)cc2)sc2cc(O)ccc12 [Raloxifene]	93.9	92.7	100	94.5	75.8	97.1	95.8	95.3	93	70.6	101	91.2	101	96.9	82.9	93.9	102	85.4	93.3	58.9
O=C(O)c1nn(Cc2ccc(Cl)cc2Cl)c2ccccc12 [Lonidamine]	103	111	107	84	90.7	103	97	112	97	88.8	102	106	101	93.7	95.1	78.5	96.2	88.9	98.1	106
CC12CCC(O)CC1CCC1C2CCC2(C)C(C3=CC(=O)OC3)CCC12O (stereo not given) [Digitoxigenin]	94.5	102	98.9	3.66	-0.896	105	97.4	101	7.21	3.46	97.3	97.5	107	0.616	-1.47	96.8	120	100	1.01	-1.41
CCOC(=O)[C@H]1O[C@@H]1C(=O)N[C@@H](CC(C)C)C(=O)NCCC(C)C [Aloxistatin]	98.4	89.2	102	99.5	87.3	94	104	103	105	96.5	99	86.2	87.1	100	88.3	99.1	104	110	97.8	87.8
Nc1ncnc2c1ncn2[C@@H]1O[C@H](CSCC[C@H](N)C(=O)O)[C@@H](O)[C@H]1O [S-Adenosyl Homocysteine]	97.5	113	98.5	94.5	102	90.8	96.9	99.2	104	105	102	102	101	107	103	110	113	91.8	97	86.1
Cc1c(-c2ccccc2)oc2c(C(=O)OCCN3CCCCC3)cccc2c1=O.Cl [Flavoxate]	94.6	93.2	102	95.6	87	92.2	110	111	99	99.2	99.1	99.5	105	101	103	87.5	83.6	97.9	94.8	98.6
Sc1ncnc2nc[nH]c12 [6-mercaptopurine]	92.6	89.7	105	52	8.81	98.9	100	93	59.3	54.4	111	91.3	87.9	56.1	13.5	87	85.5	80.1	27.3	24.7
CCOC(=O)N1c2ccc(C(F)(F)F)cc2[C@@H](N(Cc2cc(C(F)(F)F)cc(C(F)(F)F)c2)C(=O)OC)C[C@H]1CC [Torcetrapib]	105	107	126	98.3	86.8	101	112	113	102	83.8	89.8	97	118	80.9	57.8	103	105	147	84.6	53.3
C=CCc1ccc2c(c1O)C(=O)c1ccccc1C2=O [R162]	100	98.3	101	96.6	96.7	98.5	89.9	95.1	125	92.1	99.4	99.2	97.8	101	90.8	100	97.4	102	130	121
O=C(COc1ccc(C(=O)c2ccccc2)cc1)NC1CCN(Cc2ccccc2)CC1 [AdipoRon]	102	110	102	108	76.3	94.6	114	90.9	98.3	41.5	84	107	94.5	97.6	65.9	86.7	92	94.2	91.9	48.6
OCCN1CCN(CCCN2c3ccccc3Sc3ccc(Cl)cc32)CC1 [Perphenazine]	122	107	102	111	39.6	93.8	93.5	103	98	30	99.6	95.4	96.6	101	34.4	102	96	93.4	92.8	9.41
O=C(O)C(Cl)Cl [Dichloroacetate]	101	97.7	93.4	92.1	102	97.1	90.9	99	108	100	91.7	102	103	95.8	103	99.6	91.5	83.5	98.5	102
O=C1Oc2ccccc2C(=O)C1CC1C(=O)Oc2ccccc2C1=O (stereo not given) [Dicumarol]	96.6	97.3	107	107	102	110	95.6	84.2	97.8	107	93.8	91.9	99.2	104	95.4	89.7	111	87	97.5	93.6
O=C(O)CC[C@H](NC(=O)c1ccc([N+](=O)[O-])cc1)C(=O)O [(S)-2-(4-Nitrobenzamido)pentanedioic acid]	93.4	98.1	107	95.5	90.8	91.6	100	98.7	96.9	89.8	103	91.2	101	93.7	95.4	89.6	103	80	96.6	85.9
CC(C(=O)O)C(=O)O [Methylmalonate]	91.7	100	112	88.3	93.6	90.1	93.7	97	90.5	85.6	87.4	96.5	96.6	92.2	87.9	94.7	80.3	107	97.1	102
C#Cc1cnc(O)nc1O [Eniluracil]	109	115	113	104	113	94.9	109	95.2	94.3	89.7	102	120	110	97.3	107	102	112	104	108	106
O=C(O)c1cc2sccc2[nH]1 [4H-thieno[3,2-b]pyrrole-5-carboxylic acid]	90.3	104	84.7	101	99.8	95.9	98.3	98.9	101	108	105	96.6	84.2	99.1	113	107	93	93.2	92.9	96.8
CC(/C=C1\SC(=S)N(CC(=O)O)C1=O)=C\c1ccccc1 [Epalrestat]	106	99.8	100	101	102	101	91.6	94.9	95.4	111	99.7	101	99.8	104	112	95.3	85.8	103	102	110
C1CCc2nnc(C34CC5CC(CC(C5)C3)C4)n2CC1 [MERCK-544]	99.2	106	95.8	106	116	97.6	95	86.9	78.7	97.9	101	97.5	93.5	87.7	96.6	97.8	100	102	87.3	106
CC(C)Cc1sc(N)nc1-c1ccc(P(=O)(O)O)o1	95.8	108	108	112	101	96.3	94.9	98.7	90.6	88.2	98.1	108	105	103	92.7	102	101	113	101	87.3
COc1cc2c(NC3CCN(C)CC3)nc(N3CCCN(C)CC3)nc2cc1OCCCN(C)C [UNC0224]	98.2	134	97.6	94.9	90.7	98.7	107	89.8	106	79.5	94	111	95	99.6	97.2	97.8	98.7	95.2	91.4	64
[N-]=[N+]=CC(=O)CC[C@H](N)C(=O)O [6-Diazo-5-oxo-L-norleucine]	94.7	104	109	109	101	95	102	110	97.3	104	95.1	95.3	98.3	116	110	78.2	106	108	97.1	105
CN(C/C=C/C#CC(C)(C)C)Cc1cccc2ccccc12 [Terbinafine]	101	96.2	101	104	93.2	107	95.3	120	94.8	92.9	102	101	92.2	108	90.3	93.7	92.8	102	111	109
N[C@](CCCCB(O)O)(CCN1CCCCC1)C(=O)O [Arginase inhibitor 1]	97	84.6	104	102	90.9	102	84.6	85.6	108	89.4	112	93.9	93.1	93.4	99.7	101	92.3	103	92.4	84.9
Nc1ccn([C@@H]2O[C@H](CO)[C@@H](O)[C@@H]2O)c(=O)n1 [Cytarabine]	108	91.6	26.6	14.2	9.51	97	81.8	24.6	7.19	5.66	106	98.5	32	0.0645	1.39	103	89.2	84.2	34.4	0.163
C1CCC(C(CC2CCCCN2)C2CCCCC2)CC1.O=C(O)/C=C\C(=O)O (stereo not given) [Perhexiline]	92	79.3	94.3	101	1.14	96.3	85.1	94.9	99	8.47	76.3	87.2	89.7	92.8	0.081	100	101	95.3	91.8	0.781
Cc1coc2c1C(=O)C(=O)c1c-2ccc2c(C)cccc12 [Tanshinone I]	125	100	108	111	59.5	105	104	101	106	89.2	113	114	97.8	103	71.1	101	89.7	108	103	97.2

Source: the supplement of paper PMC8671470
